{"source": "patent US12583852B2", "about": "“Heterocycle derivative” (JW PHARMACEUTICAL CORPORATION, priority 2018, dated 2026)"}
{"test_system": "human dermal papilla cells", "test": "Promotion of proliferation of human dermal papilla cells (CellTiter-Glo Luminescent cell viability assay)", "assay_type": "cell-based", "conditions": "human dermal papilla cells (ScienCell, 2499); drug 0 to 30 μM; 48 hours; CellTiter-Glo luminescence; compared to DMSO-treated control group", "procedure": "The effect of promoting cell proliferation by the drug was analyzed using human dermal papilla cells (ScienCell, 2499). Human dermal papilla cells cultured using Mesenchymal Stem Cell Medium (ScienCell, 7501) medium were seeded at a density of 3×10^3 cells/well and in a volume of 100 μl in a 96-well plate, incubated overnight at 37° C. and 5% CO2, treated with the drug at different concentrations ranging from 0 to 30 μM in a volume of 100 μL, and incubated at 37° C. and 5% CO2 for 48 hours. CellTiter-Glo Luminescent cell viability assay was performed according to the manufacturer's protocol (Promega, G7573) to detect cell proliferation. Luminescence was measured using an Envision 2102 multilabeled reader (PerkinElmer) equipment, and the cell proliferation rate was analyzed by the activity of the drug-treated group compared to the DMSO-treated group (control group), which is a solvent of the drug.", "units": {"Maximum DP cell proliferation (%)": "%"}}
{"molecule": "3-chloro-N-(2,3-dihydro-1H-inden-4-yl)-5-fluoro-1H-pyrazolo[3,4-b]pyridin-6-amine [Compound 8]", "Maximum DP cell proliferation (%)": 7.9}
{"molecule": "Nc1n[nH]c2nc(Nc3cccc4c3CCC4)c(F)cc12", "note": "[Compound 3, N6-(2,3-dihydro-1H-inden-4-yl)-5-fluoro-1H-pyrazolo[3,4-b]pyridine-3,6-diamine]", "Maximum DP cell proliferation (%)": 23}
{"molecule": "Nc1n[nH]c2nc(Nc3cccc4c3CCC4)ccc12", "note": "[Compound 4, N6-(2,3-dihydro-1H-inden-4-yl)-1H-pyrazolo[3,4-b]pyridine-3,6-diamine]", "Maximum DP cell proliferation (%)": 4}
{"molecule": "CC(C)(C)c1cccc(Nc2nc3[nH]nc(N)c3cc2F)c1", "note": "[Compound 5, N6-(3-(tert-butyl)phenyl)-5-fluoro-1H-pyrazolo[3,4-b]pyridine-3,6-diamine]", "Maximum DP cell proliferation (%)": 7.4}
{"molecule": "Cn1ccc2c(Nc3nc4[nH]nc(N)c4cc3F)cccc21", "note": "[Compound 6, 5-fluoro-N6-(1-methyl-1H-indol-4-yl)-1H-pyrazolo[3,4-b]pyridine-3,6-diamine]", "Maximum DP cell proliferation (%)": 7}
{"molecule": "Nc1n[nH]c2nc(Nc3cccc4c3COC4)c(F)cc12", "note": "[Compound 9, N6-(1,3-dihydroisobenzofuran-4-yl)-5-fluoro-1H-pyrazolo[3,4-b]pyridine-3,6-diamine]", "Maximum DP cell proliferation (%)": 2.6}
{"molecule": "Nc1n[nH]c2nc(Nc3cccc4occc34)c(F)cc12", "note": "[Compound 10, N6-(benzofuran-4-yl)-5-fluoro-1H-pyrazolo[3,4-b]pyridine-3,6-diamine]", "Maximum DP cell proliferation (%)": 13}
{"molecule": "Cc1cccc(Nc2nc3[nH]nc(N)c3cc2F)c1C", "note": "[Compound 12, N6-(2,3-dimethylphenyl)-5-fluoro-1H-pyrazolo[3,4-b]pyridine-3,6-diamine]", "Maximum DP cell proliferation (%)": 5.4}
{"molecule": "CCOC(=O)c1cc2c(N)n[nH]c2nc1Nc1cccc2c1CCC2", "note": "[Compound 14, ethyl 3-amino-6-((2,3-dihydro-1H-inden-4-yl)amino)-1H-pyrazolo[3,4-b]pyridine-5-carboxylate]", "Maximum DP cell proliferation (%)": 5.3}
{"molecule": "Nc1n[nH]c2nc(Nc3cccc4c3CCC4)cnc12", "note": "[Compound 15, N6-(2,3-dihydro-1H-inden-4-yl)-1H-pyrazolo[3,4-b]pyrazine-3,6-diamine]", "Maximum DP cell proliferation (%)": 24}
{"molecule": "Nc1n[nH]c2nc(Nc3cccc4c3CCC4)c(C(=O)O)cc12", "note": "[Compound 16, 3-amino-6-((2,3-dihydro-1H-inden-4-yl)amino)-1H-pyrazolo[3,4-b]pyridine-5-carboxylic acid]", "Maximum DP cell proliferation (%)": 6.1}
{"molecule": "Cc1c(Cl)c(Nc2cccc3c2CCC3)nc2[nH]nc(N)c12", "note": "[Compound 17, 5-chloro-N6-(2,3-dihydro-1H-inden-4-yl)-4-methyl-1H-pyrazolo[3,4-b]pyridine-3,6-diamine]", "Maximum DP cell proliferation (%)": 6}
{"molecule": "Cc1ccc(Nc2nc3[nH]nc(N)c3cc2F)cc1C", "note": "[Compound 18, N6-(3,4-dimethylphenyl)-5-fluoro-1H-pyrazolo[3,4-b]pyridine-3,6-diamine]", "Maximum DP cell proliferation (%)": 7.8}
{"molecule": "Nc1n[nH]c2nc(Nc3cccc4c3CCCC4)c(F)cc12", "note": "[Compound 19, 5-fluoro-N6-(5,6,7,8-tetrahydronaphthalen-1-yl)-1H-pyrazolo[3,4-b]pyridine-3,6-diamine]", "Maximum DP cell proliferation (%)": 9}
{"molecule": "CCCc1cc2c(N)n[nH]c2nc1Nc1cccc2c1CCC2", "note": "[Compound 21, N6-(2,3-dihydro-1H-inden-4-yl)-5-propyl-1H-pyrazolo[3,4-b]pyridine-3,6-diamine]", "Maximum DP cell proliferation (%)": 3}
{"molecule": "Nc1n[nH]c2nc(Nc3cccc4c3CCC4)c(-c3ccccc3)cc12", "note": "[Compound 23, N6-(2,3-dihydro-1H-inden-4-yl)-5-phenyl-1H-pyrazolo[3,4-b]pyridine-3,6-diamine]", "Maximum DP cell proliferation (%)": 5}
{"molecule": "Nc1n[nH]c2nc(Nc3cccc4ccccc34)c(F)cc12", "note": "[Compound 24, 5-fluoro-N6-(naphthalen-1-yl)-1H-pyrazolo[3,4-b]pyridine-3,6-diamine]", "Maximum DP cell proliferation (%)": 8}
{"molecule": "Cc1cc2c(c(Nc3nc4[nH]nc(N)c4cc3F)c1)CCC2", "note": "[Compound 27, 5-fluoro-N6-(6-methyl-2,3-dihydro-1H-inden-4-yl)-1H-pyrazolo[3,4-b]pyridine-3,6-diamine]", "Maximum DP cell proliferation (%)": 6.8}
{"molecule": "Nc1n[nH]c2nc(Nc3c4c(cc5c3CCC5)CCC4)c(F)cc12", "note": "[Compound 29, 5-fluoro-N6-(1,2,3,5,6,7-hexahydro-s-indacen-4-yl)-1H-pyrazolo[3,4-b]pyridine-3,6-diamine]", "Maximum DP cell proliferation (%)": 4.6}
{"molecule": "Cc1ccc2cccc(Nc3nc4[nH]nc(N)c4cc3F)c2c1", "note": "[Compound 31, 5-fluoro-N6-(7-methyl-1-naphthyl)-1H-pyrazolo[3,4-b]pyridine-3,6-diamine]", "Maximum DP cell proliferation (%)": 3.2}
{"molecule": "Cc1c(Nc2nc3[nH]nc(N)c3cc2F)cccc1N(C)C", "note": "[Compound 33, N6-(3-(dimethylamino)-2-methylphenyl)-5-fluoro-1H-pyrazolo[3,4-b]pyridine-3,6-diamine]", "Maximum DP cell proliferation (%)": 6.3}
{"molecule": "Nc1n[nH]c2nc(CNc3cccc4c3CCC4)c(F)cc12", "note": "[Compound 34, 5-fluoro-6-[(indan-4-ylamino)methyl]-1H-pyrazolo[3,4-b]pyridin-3-amine]", "Maximum DP cell proliferation (%)": 6.8}
{"molecule": "Nc1n[nH]c2nc(Nc3cccc4ccccc34)ccc12", "note": "[Compound 35, N6-(naphthalen-1-yl)-1H-pyrazolo[3,4-b]pyridine-3,6-diamine]", "Maximum DP cell proliferation (%)": 1.2}
{"molecule": "Nc1n[nH]c2nc(Nc3cccc4c3CCCC4)ccc12", "note": "[Compound 38, N6-(5,6,7,8-tetrahydronaphthalen-1-yl)-1H-pyrazolo[3,4-b]pyridine-3,6-diamine]", "Maximum DP cell proliferation (%)": 2.2}
{"molecule": "Nc1n[nH]c2nc(Nc3cccc(C(F)F)c3F)cnc12", "note": "[Compound 39, N6-[3-(difluoromethyl)-2-fluoro-phenyl]-1H-pyrazolo[3,4-b]pyrazine-3,6-diamine]", "Maximum DP cell proliferation (%)": 7.9}
{"molecule": "Nc1n[nH]c2nc(Nc3cccc4c3CCC4)c(Cl)c(Cl)c12", "note": "[Compound 42, 4,5-dichloro-N6-indan-4-yl-1H-pyrazolo[3,4-b]pyridine-3,6-diamine]", "Maximum DP cell proliferation (%)": 16}
{"molecule": "Nc1n[nH]c2nc(Nc3cccc4c3CCCC4)cnc12", "note": "[Compound 45, N6-tetralin-5-yl-1H-pyrazolo[3,4-b]pyrazine-3,6-diamine]", "Maximum DP cell proliferation (%)": 7}
{"molecule": "Nc1n[nH]c2nc(Nc3cccc4c3CC=C4)c(F)cc12", "note": "[Compound 48, 5-fluoro-N6-(1H-inden-7-yl)-1H-pyrazolo[3,4-b]pyridine-3,6-diamine]", "Maximum DP cell proliferation (%)": 11}
{"molecule": "CC1(C)CCc2c(Nc3nc4[nH]nc(N)c4cc3F)cccc21", "note": "[Compound 51, N6-(1,1-dimethyl-2,3-dihydro-1H-inden-4-yl)-5-fluoro-1H-pyrazolo[3,4-b]pyridine-3,6-diamine]", "Maximum DP cell proliferation (%)": 8.7}
{"molecule": "CC1(C)Cc2cccc(Nc3nc4[nH]nc(N)c4cc3F)c2C1", "note": "[Compound 52, N6-(2,2-dimethyl-2,3-dihydro-1H-inden-4-yl)-5-fluoro-1H-pyrazolo[3,4-b]pyridine-3,6-diamine]", "Maximum DP cell proliferation (%)": 11}
{"molecule": "Nc1n[nH]c2nc(Nc3cccc4c3CNC4=O)c(F)cc12", "note": "[Compound 53, 4-((3-amino-5-fluoro-1H-pyrazolo[3,4-b]pyridin-6-yl)amino)isoindolin-1-one]", "Maximum DP cell proliferation (%)": 2.4}
{"molecule": "Nc1n[nH]c2nc(Nc3cccc4c3CC(=O)N4)c(F)cc12", "note": "[Compound 54, 4-((3-amino-5-fluoro-1H-pyrazolo[3,4-b]pyridin-6-yl)amino)indolin-2-one]", "Maximum DP cell proliferation (%)": 4.4}
